Experimental data published in publication PMC11766601, “A Comparative Study of the In Vitro Intestinal Permeability of Pinnatoxins and Portimine” (Marine Drugs, 2025).
Marks after values point to notes of the source that are not given here.

Key:
[1] = test system: Caco-2 cell monolayers; assay: Lucifer Yellow paracellular permeability (barrier integrity); type: cell-based, human; conditions: 24 h, all concentrations (8, 16, 32 ng/mL)
Method: (§1) All experiments were performed with human intestinal Caco-2 cells (ATCC-HTB37), acquired from the American Type Culture Collection (ATCC; Manassas, VA, USA). Caco-2 cells originate from a colorectal adenocarcinoma, but upon reaching confluence, they differentiate and express the characteristics of enterocytes. The cells were cultivated in minimum essential medium containing 5.5 mM D-glucose, Earle’s salts, and 2 mM L-alanyl-glutamine (MEM GlutaMAX™, Gibco, Bromont, QC, Canada) supplemented with 10% fetal bovine serum (FBS, Gibco), 1% non-essential amino acids, 50 U/mL penicillin, and 50 μg/mL streptomycin (Gibco) under humidified conditions (37 °C, 5% CO2, 95% humidity). The cells were grown for 3–4 days up to 80% confluence before trypsinization and sub-culture. For the experiments, the cells were seeded in TRANSWELL® plates (12 wells, 0.4 µm pore size; Costar®, Corning Incorporated, Corning, NY, USA) at a density of 90,000 cells/cm^2. Prior to toxin treatment, highly differentiated Caco-2 cells were obtained after 24–26 days of culture, with medium renewal every 2–3 days. Passage numbers between 30 and 40 were used for experiments.
(§2) PnTX-A, PnTX-G, PnTX-E, PnTX-H, and portimine stock solutions were prepared in methanol, while PnTX-F was provided in acetonitrile/acetic acid (50%/0.1%). For each toxin, the cells were incubated at 8, 16, and 32 ng/mL (diluted in HBSS) for 2 h, 6 h, and 24 h, with a final volume of 1.5% solvent. The controls were incubated with the cell culture medium containing the respective solvent of the toxin at 1.5%. Each experiment included three biological replicates. Two to three independent experiments were conducted.
For the assay, both compartments of the insert system were washed with Hank’s balanced salt solution (HBSS). Then, 0.5 mL of 0.1 mg/mL Lucifer Yellow in HBSS buffer and 1 mL of pure HBSS buffer were added to the apical and basolateral compartments, respectively. After a 2 h incubation at 37 °C, the media of the basolateral compartments were collected and the fluorescence of each compartment was measured in triplicate (excitation: 405 nm, emission: 520 nm) with a FLUOstar Optima microplate reader (BMG Labtech, Ortenberg, Germany). After subtraction of the blank (HBSS), the permeability of the […] was calculated against the value obtained for pure LY and reported as % permeability.

[2] = Toxin crossing and apparent permeability across Caco-2 cell monolayers (A to B), LC-MS/MS; type: in vitro ADME, human; conditions: human, Caco-2; for Papp at 2 h, 8 ng/mL / Papp at 6 h, 8 ng/mL: loaded 8 ng/mL; for Papp at 2 h, 8 ng/mL / Papp at 2 h, 16 ng/mL / Papp at 2 h, 32 ng/mL / Papp at 6 h, 8 ng/mL / Papp at 6 h, 16 ng/mL / Papp at 6 h, 32 ng/mL: A to B; for Papp at 2 h, 16 ng/mL / Papp at 6 h, 16 ng/mL: loaded 16 ng/mL; for Papp at 2 h, 32 ng/mL / Papp at 6 h, 32 ng/mL: loaded 32 ng/mL
Method: as §1, §2
(§3) The apical and basolateral compartments were collected after 2, 6, and 24 h treatment time. Parts of the solutions that were used to load the apical compartments were also stored (T0) to take into account the real concentration and not the estimated concentration. All the samples were stored at −20 °C until LC/MS analysis.
(§4) The LC-MS/MS analysis of toxins was implemented for the quantitative analysis of toxins. The LC system was an Agilent 1200 (Agilent Technologies, Santa Clara, CA, USA). The chromatographic separation was performed using a column Hypersil GOLD® C18 50 mm × 2.1 mm, 1.9 μm (Thermo Scientific, Waltham, MA, USA). Eluent A consisted of water, and eluent B of acetonitrile/water at a ratio of 95:5 (v/v), with both eluents containing 50 mM formic acid and 2 mM ammonium formate. The LC flow rate was 0.4 mL/min, and the gradient was programmed as follows: 10% B held for 0.5 min, 10–90% B in 5 min, 90% B held for 1 min, 90–10% B in 0.5 min, and 10% B held for 3.0 min, for a total run time of 10 min. The injection volume was 5 μL, while the column temperature was maintained at 40 °C. The column effluent was transferred via a divert valve (Valco Instruments Co., Inc., Houston, TX, USA), either to the mass spectrometer (between 1.7 and 5.5 min) or to waste.
(§5) The detection system was constructed with an API 4000 triple quadrupole mass spectrometer (Sciex, Framingham, MA, USA) equipped with an ElectroSpray Ionization (ESI) source (Turbo V). The mass spectrometer was operated in positive ESI mode. The source temperature was set at 600 °C, and the spray voltage was 5500 V. Air was used as a nebulizer gas and an auxiliary gas, with a gas pressure of 40 and 60 psi, respectively. Meanwhile, the curtain gas and collision gas were nitrogen, with a gas pressure of 15 and 8 psi, respectively. The mass spectrometer was operated in multiple reaction monitoring mode (MRM). One transition was used for quantification (Q) and another as a qualifier transition (q). A mass resolution of 0.7 Da full width at half maximum (FWHD) was set on the first (Q1) and the third (Q3) quadrupoles. Instrument control and data were handled with Analyst software version 1.5.1 (Sciex, Framingham, MA, USA).
(§6) The portimine and PnTX retention times varied between 2.7 and 4.4 min (Figure S1). […]

[3] = test system: Caco-2 cell monolayers; assay: as above; type: in vitro ADME, human; conditions: for % theoretical amount of toxin crossing the Caco-2 cell monolayers: relative to theoretical loaded concentration; for Percentage of toxin crossing the Caco-2 cell monolayers: A to B, relative to quantified T0; for permeability / oral bioavailability class from Caco-2 Papp: threshold Papp > 1.5 × 10^−6 cm·s^−1 = highly penetrative
Method: as §1, §2, §3, §4, §5, §6

[4] = test system: Caco-2 cells; assay: Trans-epithelial electrical resistance (TEER) of differentiated Caco-2 monolayers; type: cell-based, human; conditions: 24 h
Method: as §1, §2
Epithelial integrity was examined by measuring the TEER between the apical and basolateral compartments. After rinsing with a HBSS solution (HBSS, HEPES 5 mM, pH 7.4), the Caco-2 monolayers were equilibrated for 30 min at 37 °C with 300 and 1000 µL HBSS in the apical (A) and basolateral (B) chambers, respectively. Then, the content of the apical compartment was replaced with 500 µL HBSS-containing toxins. TEER was quantified with a Millipore Millicell Electrical Resistance System (ERS Millipore, EMD Millipore Corporation, Burlington, MA, USA). The mean value of two measurements per well before and after the treatment was calculated and multiplied by the surface of the insert to obtain Ω × cm^2. After blank subtraction, the results were presented as a percentage of the solvent control.

[5] = test system: mice; conditions: mice, oral exposure; cited from earlier work
[6] = test system: cancer cells; conditions: cancer cells; cited from earlier work

Row | Structure (SMILES) | effect on LY permeability [1] | Papp at 2 h, 8 ng/mL [2] [nm/s] | Papp at 2 h, 16 ng/mL [2] [nm/s] | Papp at 2 h, 32 ng/mL [2] [nm/s] | Papp at 6 h, 8 ng/mL [2] [nm/s] | Papp at 6 h, 16 ng/mL [2] [nm/s] | Papp at 6 h, 32 ng/mL [2] [nm/s] | % theoretical amount of toxin crossing the Caco-2 cell monolayers ([3]; 2 h, 8 ng/mL) [%] | % theoretical amount of toxin crossing the Caco-2 cell monolayers ([3]; 2 h, 16 ng/mL) [%] | % theoretical amount of toxin crossing the Caco-2 cell monolayers ([3]; 2 h, 32 ng/mL) [%] | Percentage of toxin crossing the Caco-2 cell monolayers ([3]; 2 h, loaded 8 ng/mL) | Percentage of toxin crossing the Caco-2 cell monolayers ([3]; 2 h, loaded 16 ng/mL) [%] | Percentage of toxin crossing the Caco-2 cell monolayers ([3]; 2 h, loaded 32 ng/mL) [%] | % theoretical amount of toxin crossing the Caco-2 cell monolayers ([3]; 6 h, 8 ng/mL) [%] | % theoretical amount of toxin crossing the Caco-2 cell monolayers ([3]; 6 h, 16 ng/mL) [%] | % theoretical amount of toxin crossing the Caco-2 cell monolayers ([3]; 6 h, 32 ng/mL) [%] | Percentage of toxin crossing the Caco-2 cell monolayers ([3]; 6 h, loaded 8 ng/mL) [%] | Percentage of toxin crossing the Caco-2 cell monolayers ([3]; 6 h, loaded 16 ng/mL) [%] | Percentage of toxin crossing the Caco-2 cell monolayers ([3]; 6 h, loaded 32 ng/mL) [%] | permeability / oral bioavailability class from Caco-2 Papp [3] | also measured
1 | C=C1CCCC2=NCC(C)C(C)CC23CCC(C(O)CCC(=O)O)=CC3C2OC3(CC(C)CC2O3)CC2OC3(CCC4(OC(CCC4(C)O)C1)O3)CC(C)C2O (stereo not drawn) [PnTX-E] | significant increase | 37.5 | 15 ± 4 | 18.1 ± 2.8 | 20.4 ± 4 | 14.9 ± 6.5 | 23.8 ± 7.1 | 5.25 | 2.12 ± 0.71 | 2.47 ± 0.31 | 6.05 * % | 2.41 ± 0.65 | 2.92 ± 0.45 | 2.87 ± 0.53 | 2.12 ± 1.06 | 3.25 ± 0.88 | 3.29 ± 0.64 | 2.40 ± 1.06 | 3.85 ± 1.15 | poor permeability | Papp ([2]; 2 and 6 h, 8-32 ng/mL, read-out: Papp, range of means): 14.9 to 37.5 nm/s; decrease of toxin amount in the apical compartment ([3]; 2 h, all the tested concentrations): approximately 15%; toxin amount in the apical compartment ([3]; 6 h): approximately 100 % of the loaded amount; amount of toxin crossing the intestinal barrier in vitro ([3]; regardless of the concentration loaded, 2 and 6 h): < 4%; effect on TEER ([4]; 16 and 32 ng/mL): slight, but non-significant, decrease; macroscopic lesions on the intestine, other organs and tissues [5]: no macroscopic lesions
2 | C=C1CCCC2=NCC(C)C(C)CC23CCC(C2CCC(=O)O2)=CC3C2OC3(CC(C)CC2O3)CC2OC3(CCC4(OC(CCC4(C)O)C1)O3)CC(C)C2O (stereo not drawn) [PnTX-F] | significant increase | 89.5 ± 16.9 | 62.8 ± 23.7 | 69.4 ± 20.3 | 161 ± 2.4 | 114 ± 28.8 | 137 ± 10.9 | 4.75 ± 0.35 | 4.00 ± 0.00 | 5.03 ± 0.31 | 14.43 ± 2.73% | 10.12 ± 3.82 | 11.20 ± 3.27 | 8.75 ± 2.12 | 7.44 ± 0.97 | 10.31 ± 2.83 | 26.00 ± 0.52 | 18.36 ± 4.64 | 22.09 ± 1.76 | high oral bioavailability | percentage of toxin crossing (text summary over 8-32 ng/mL) ([3]; 2 h): around 12%; TEER ([4]; 32 ng/mL): 67 ± 5.6 % of the control value; effect on TEER ([4]; 8 and 16 ng/mL): slight non-significant decrease; macroscopic lesions on the intestine, other organs and tissues [5]: no macroscopic lesions
3 | C=CC1=CC2C3O[C@]4(CCC(O4)[C@@H](C)C[C@@H](O)C3=O)CC(=O)C3=NCC[C@@]32CC1 (stereo partly drawn) [Portimine-B, portimine-B, reference compound] |  |  |  |  |  |  |  |  |  |  |  |  |  |  |  |  |  |  |  |  | apoptosis induction [6]: induces apoptosis in cancer cells but with less activity
